Data: patent publication US4223036A, “1-(1,3-Dioxolan-2-ylmethyl)-1H-1,2,4-triazoles” (Janssen Pharmaceutica N.V., priority 1979, dated 1980)
Structures can show the parent of a compound that is named as a salt.

Assays:
Candida albicans [1] = assay: Activity against vaginal candidosis in rats (lowest oral dose active at the 14th day after infection); assay type: in vivo, Female Wistar rats; set-up: lowest effective oral dose (vaginal candidosis in rats): unit not given here; conditions: oral once a day for two days, active at 14th day after infection; for lowest effective oral dose (vaginal candidosis in rats): Table I; for minimal effective dose: Candida albicans, 336 h
Procedure: Experiment A: Activity of Compounds (I) Against Vaginal Candidosis in Rats
Female Wistar rats of ±100 g body weight were used. They were ovariectomized and hysterectomized and after three weeks of recovery, 100 μg of oestradiol undecylate in sesame oil was given subcutaneously once a week for 3 consecutive weeks. The thus induced pseudooestrus was controlled by microscopic examination of vaginal smears. Food and water were left available ad libitum.
The rats were infected intravaginally with 8.10^5 cells of Candida albicans, grown on Sabouraud broth for 48 hours at 37° C. and diluted with saline. The date of infection varied from day +25 to day +32 after surgical intervention, depending on the appearance of signs of induced pseudo-oestrus.
The drugs under investigation were administered orally once a day for two days starting from the day of infection. For each experiment there were placebo treated controls. The results were assessed by taking vaginal smears with sterile swabs on several days after infection. The swabs were put into Sabouraud broth in petri-dishes and incubated for 48 hours a 37° C. If no growth of Candida albicans occured, i.e., when the animals were negative at the end of the experiment, this was due to drug administration because it never happened in placebo treated controls.
The Tables I, II and III below give the lowest oral dose of the drug under investigation which was found active at the 14th day after infection.

Candida albicans [2] = assay: Activity against crop candidosis in turkeys (dose whereby crops of 50% of animals were completely negative); assay type: in vivo; conditions: medicated feed for 13 consecutive days
Procedure: Experiment B: Activity of Compounds (I) Against Crop Candidosis in Turkeys
Turkeys of 14 days old were infected in the crop with 4.10^6 Candida albicans cells, grown on Sabouraud broth for 48 hours at 37° C. and diluted with saline. The volume of the inoculum was 1 ml. The drug under investigation were premixed in 500 mg of lacton and thereafter admixed in 1000 g of meal without any additives. The concentration of the drug under investigation in the meal was expressed in mg/kg.
The animals were given the medicated feed for 13 consecutive days starting on the day of infection. At the end of the experiment all animals were sacrificed. At autopsy the crops were removed, emptied and grinded in an ultra-turrax mixer in 15 ml of sterile saline. Colony counting was done on Sabouraud agar and the results given in the Tables I, II and III represent the ED50, i.e., the dose of the drug whereby the crops of 50% of the animals were completely negative for Candida albicans.

Structure (SMILES): CNC(=O)N1CCN(c2ccc(OC[C@H]3CO[C@](Cn4ccnc4)(c4ccc(Cl)cc4Cl)O3)cc2)CC1 (relative stereo)
- lowest effective oral dose (vaginal candidosis in rats) (Candida albicans [1]): 2.5
- ED50 (crop candidosis in turkeys) (Candida albicans [2]; Table I): 16 mg/kg of feed

Structure (SMILES): COC(=O)Nc1ccc(OC[C@H]2CO[C@](Cn3ccnc3)(c3ccc(Cl)cc3Cl)O2)cc1 (relative stereo) [NHCOOCH3, cis-methyl {4-[2-(2,4-dichlorophenyl)-2-(1H-imidazol-1-ylmethyl-1,3-dioxolan-4-ylmethoxy]phenyl}-carbamate nitrate]
- lowest effective oral dose (vaginal candidosis in rats) (Candida albicans [1]): 5
- ED50 (crop candidosis in turkeys) (Candida albicans [2]; Table I): 31 mg/kg of feed

Structure (SMILES): Clc1ccc([C@@]2(Cn3ccnc3)OC[C@H](COc3ccc(N4CCOCC4)cc3)O2)c(Cl)c1 (relative stereo)
- lowest effective oral dose (vaginal candidosis in rats) (Candida albicans [1]): 2.5
- ED50 (crop candidosis in turkeys) (Candida albicans [2]; Table I): 16 mg/kg of feed

Structure (SMILES): NC(=O)CN1CCN(c2ccc(OC[C@H]3CO[C@](Cn4ccnc4)(c4ccc(Cl)cc4Cl)O3)cc2)CC1 (relative stereo)
- lowest effective oral dose (vaginal candidosis in rats) (Candida albicans [1]): 1.25

Structure (SMILES): CC(C)N1CCN(c2ccc(OC[C@H]3CO[C@](Cn4ccnc4)(c4ccc(Cl)cc4Cl)O3)cc2)CC1 (relative stereo)
- lowest effective oral dose (vaginal candidosis in rats) (Candida albicans [1]): 2.5

Structure (SMILES): CCOC(=O)N1CCN(c2ccc(OC[C@H]3CO[C@](Cn4cncn4)(c4ccc(Cl)cc4Cl)O3)cc2)CC1 (relative stereo) [COOC2 H5, cis-ethyl 4-{4-[2-(2,4-dichlorophenyl)-2-(1H-1,2,4-triazol-1-ylmethyl)-1,3-dioxolan-4-ylmethoxy]phenyl}1-piperazinecarboxylate dihydrochloride]
- ED50 (crop candidosis in turkeys) (Candida albicans [2]; Table II): 8 mg/kg of feed

Structure (SMILES): CCOC(=O)N1CCN(c2ccc(OCC3COC(Cn4ccnc4)(c4ccc(OC)cc4)O3)cc2)CC1 (stereo not drawn) [ethyl 4-{4-[2-(1H-imidazol-1-ylmethyl)-2-(4-methoxyphenyl)-1,3-dioxolan-4-ylmethoxy]phenyl}-1-piperazinecarboxylate (E)-2-butenedioate (2:1)]
- minimal effective dose (Candida albicans [1]; Table III): 2.5 mg/kg

Structure (SMILES): CCCN1CCN(c2ccc(OC[C@H]3CO[C@](Cn4cncn4)(c4ccc(Cl)cc4Cl)O3)cc2)CC1 (relative stereo) [(CH2)2CH3]
- ED50 (crop candidosis in turkeys) (Candida albicans [2]; Table II): 16 mg/kg of feed

Structure (SMILES): CCCCN1CCN(c2ccc(OC[C@H]3CO[C@](Cn4cncn4)(c4ccc(Cl)cc4Cl)O3)cc2)CC1 (relative stereo) [(CH2)3CH3]
- ED50 (crop candidosis in turkeys) (Candida albicans [2]; Table II): 16 mg/kg of feed

Structure (SMILES): CN1CCN(c2ccc(OC[C@H]3CO[C@](Cn4ccnc4)(c4ccc(Cl)cc4Cl)O3)cc2)CC1 (relative stereo)
- lowest effective oral dose (vaginal candidosis in rats) (Candida albicans [1]): 2.5

Structure (SMILES): NC(=S)Nc1ccc(OC[C@H]2CO[C@](Cn3ccnc3)(c3ccc(Cl)cc3Cl)O2)cc1 (relative stereo) [NHCSNH2, cis-N-{4-[2-(2,4-dichlorophenyl)-2-(1H-imidazol-1-yl-methyl)-1,3-dioxolan-4-ylmethoxy]phenyl}thiourea]
- lowest effective oral dose (vaginal candidosis in rats) (Candida albicans [1]): 20

Structure (SMILES): O=S(=O)(Cc1ccccc1)N1CCN(c2ccc(OC[C@H]3CO[C@](Cn4ccnc4)(c4ccc(Cl)cc4Cl)O3)cc2)CC1 (relative stereo)
- ED50 (crop candidosis in turkeys) (Candida albicans [2]; Table I): 16 mg/kg of feed

Structure (SMILES): O=C(Oc1ccccc1)N1CCN(c2ccc(OC[C@H]3CO[C@](Cn4cncn4)(c4ccc(Cl)cc4Cl)O3)cc2)CC1 (relative stereo) [COOC6 H5, cis-phenyl 4-{4-[2-(2,4-dichlorophenyl)-2-(1H-1,2,4-triazol-1-ylmethyl)-1,3-dioxolan-4-ylmethoxy]phenyl}-1-piperazinecarboxylate]
- ED50 (crop candidosis in turkeys) (Candida albicans [2]; Table II): 16 mg/kg of feed

Structure (SMILES): CCOC(=O)N1CCN(c2cccc(OC[C@H]3CO[C@](Cn4ccnc4)(c4ccc(Cl)cc4Cl)O3)c2)CC1 (relative stereo)
- minimal effective dose (Candida albicans [1]; Table III): 2.5 mg/kg

Structure (SMILES): CC(C)N1CCN(c2ccc(OC[C@H]3CO[C@](Cn4cncn4)(c4ccc(Cl)cc4Cl)O3)cc2)CC1 (relative stereo) [CH(CH3)2]
- minimal effective dose (Candida albicans [1]; Table II): 2.5 mg/kg

Structure (SMILES): CCCCN1CCN(c2ccc(OC[C@H]3CO[C@](Cn4ccnc4)(c4ccc(Cl)cc4Cl)O3)cc2)CC1 (relative stereo)
- ED50 (crop candidosis in turkeys) (Candida albicans [2]; Table I): 31 mg/kg of feed

Structure (SMILES): COc1ccc(C2(Cn3ccnc3)OCC(COc3ccc(N4CCN(C(C)=O)CC4)cc3)O2)cc1 (stereo not drawn) [1-acetyl-4-{4-[2-(1H-imidazol-1-ylmethyl)-2-(4-methoxyphenyl)-1,3-dioxolan-4-ylmethoxy]phenyl}piperazine]
- ED50 (crop candidosis in turkeys) (Candida albicans [2]; Table III): 31 mg/kg of feed

Structure (SMILES): O=S(=O)(Cc1ccccc1)N1CCN(c2ccc(OC[C@H]3CO[C@](Cn4cncn4)(c4ccc(Cl)cc4Cl)O3)cc2)CC1 (relative stereo) [SO2CH2C6H5, cis-1-{4-[2-(2,4-dichlorophenyl)-2-(1H-1,2,4-triazol-1-ylmethyl)-1,3-dioxolan-4-ylmethoxy]phenyl}-4-(phenylmethylsulfonyl)piperazine monohydrate]
- ED50 (crop candidosis in turkeys) (Candida albicans [2]; Table II): 16 mg/kg of feed

Structure (SMILES): CCN1CCN(c2ccc(OC[C@H]3CO[C@](Cn4ccnc4)(c4ccc(Cl)cc4Cl)O3)cc2)CC1 (relative stereo) [drawing 49]
- lowest effective oral dose (vaginal candidosis in rats) (Candida albicans [1]): < 2.5

Structure (SMILES): O=C(Nc1ccc(OC[C@H]2CO[C@](Cn3ccnc3)(c3ccc(Cl)cc3Cl)O2)cc1)c1ccc(Cl)cc1 (relative stereo)
- ED50 (crop candidosis in turkeys) (Candida albicans [2]; Table I): 31 mg/kg of feed

Structure (SMILES): O=C(c1ccccc1)N1CCN(c2ccc(OC[C@H]3CO[C@](Cn4cncn4)(c4ccc(Cl)cc4Cl)O3)cc2)CC1 (relative stereo) [COC6 H5, cis-1-benzoyl-4-{4-[2-(2,4-dichlorophenyl)-2-(1H-1,2,4-triazol-1-ylmethyl)-1,3-dioxolan-4-ylmethoxy]phenyl}piperazine]
- minimal effective dose (Candida albicans [1]; Table II): 1.25 mg/kg

Structure (SMILES): CC(C)CN1CCN(c2ccc(OC[C@H]3CO[C@](Cn4ccnc4)(c4ccc(Cl)cc4Cl)O3)cc2)CC1 (relative stereo)
- ED50 (crop candidosis in turkeys) (Candida albicans [2]; Table I): 16 mg/kg of feed

Structure (SMILES): CCC(=O)N1CCN(c2ccc(OC[C@H]3CO[C@](Cn4cncn4)(c4ccc(Cl)cc4Cl)O3)cc2)CC1 (relative stereo) [COC2 H5, cis-1{4-[2-(2,4-dichlorophenyl)-2-(1H-1,2,4-triazol-1-ylmethyl)-1,3-dioxolan-4-ylmethoxy]phenyl}-4-(1-oxopropyl)piperazine dihydrochloride]
- ED50 (crop candidosis in turkeys) (Candida albicans [2]; Table II): 8 mg/kg of feed

Structure (SMILES): CCCC(=O)N1CCN(c2ccc(OC[C@H]3CO[C@](Cn4cncn4)(c4ccc(Cl)cc4Cl)O3)cc2)CC1 (relative stereo) [CO(CH2)2CH3, cis-1-{4-[2-(2,4-dichlorophenyl)-2-(1H-1,2,4-triazol-1-ylmethyl)-1,3-dioxolan-4-ylmethoxy]phenyl}-4-(1-oxobutyl)piperazine dihydrochloride]
- ED50 (crop candidosis in turkeys) (Candida albicans [2]; Table II): 16 mg/kg of feed

Structure (SMILES): O=CN1CCN(c2ccc(OC[C@H]3CO[C@](Cn4ccnc4)(c4ccc(Cl)cc4Cl)O3)cc2)CC1 (relative stereo)
- lowest effective oral dose (vaginal candidosis in rats) (Candida albicans [1]): < 10

Structure (SMILES): CNc1ccc(OC[C@H]2CO[C@](Cn3ccnc3)(c3ccc(Cl)cc3Cl)O2)cc1 (relative stereo) [NHCH3, cis-4-[2-(2,4-dichlorophenyl)-2-(1H-imidazol-1-ylmethyl)-1,3-dioxolan-4-ylmethoxy]-N-methylbenzenamine]
- lowest effective oral dose (vaginal candidosis in rats) (Candida albicans [1]): 5

Structure (SMILES): COC(=O)N1CCN(c2ccc(OC[C@H]3CO[C@](Cn4cncn4)(c4ccc(Cl)cc4Cl)O3)cc2)CC1 (relative stereo) [COOCH 3, cis-methyl 4-{4-[2-(2,4-dichlorophenyl)-2-(1H-1,2,4-triazol-1-ylmethyl)-1,3-dioxolan-4-ylmethoxy]phenyl}-1-piperazinecarboxylate]
- ED50 (crop candidosis in turkeys) (Candida albicans [2]; Table II): 8 mg/kg of feed
